The supplement of paper PMC10307832

Key:
Assay in all cases: relative viability (nuclei count vs DMSO), 5 days (fraction); higher = more cells survive
[1] = compound: C1/C(=C\C2=CC=CS2)/C(=O)/C(=C/C3=CC=CS3)/C1 + C[C@@H](Oc1cc(-c2cnn(C3CCNCC3)c2)cnc1N)c1c(Cl)ccc(F)c1Cl [Crizotinib] (partner 1 µM)
In short: (§1)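 Relative viability is defined as nuclei in treated wells over nuclei in vehicle wells. Duplicate plates were run and medians reported. Lung cancer cell lines in 1536-well plates were dosed by pin tool one day after seeding, with one drug or with a fixed anchor-drug dose plus five library-drug doses (not always all listed) in √10 steps, and nuclei were counted after 5 days.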

[2] = compound: C1/C(=C\C2=CC=CS2)/C(=O)/C(=C/C3=CC=CS3)/C1 + C[C@]1(O)C[C@@H](c2nc(-c3ccc4ccc(-c5ccccc5)nc4c3)c3c(N)nccn32)C1 [Linsitinib] (partner 1 µM)
In short: as §1

[3] = compound: C1/C(=C\C2=CC=CS2)/C(=O)/C(=C/C3=CC=CS3)/C1 + Nc1ncn([C@H]2C[C@H](O)[C@@H](CO)O2)c(=O)n1 [Decitabine] (partner 2 µM)
In short: as §1

[4] = compound: C[C@]12O[C@H](C[C@]1(O)CO)n1c3ccccc3c3c4c(c5c6ccccc6n2c5c31)CNC4=O [Lestaurtinib] + CC(C)C[C@H](NC(=O)[C@H](Cc1ccccc1)NC(=O)c1cnccn1)B(O)O [Bortezomib] (partner 0.002 µM)
In short: as §1

Cell Line | relative viability ([1]; first compound 0.2 µM) | relative viability ([1]; first compound 0.6325 µM) | relative viability ([1]; first compound 2 µM) | relative viability ([1]; first compound 6.325 µM) | relative viability ([1]; first compound 20 µM) | relative viability ([2]; first compound 0.2 µM) | relative viability ([2]; first compound 0.6325 µM) | relative viability ([2]; first compound 2 µM) | relative viability ([2]; first compound 6.325 µM) | relative viability ([2]; first compound 20 µM) | relative viability ([3]; first compound 0.2 µM) | relative viability ([3]; first compound 0.6325 µM) | relative viability ([3]; first compound 2 µM) | relative viability ([3]; first compound 6.325 µM) | relative viability ([3]; first compound 20 µM) | relative viability ([4]; first compound 0.005 µM) | relative viability ([4]; first compound 0.01581 µM) | relative viability ([4]; first compound 0.05 µM) | relative viability ([4]; first compound 0.1581 µM) | relative viability ([4]; first compound 0.5 µM)
NCI-H2023 | 0.685 | 0.602 | 0.762 | 0.652 | 0.684 | 0.794 | 0.684 | 0.668 | 0.731 | 0.679 | 0.247 | 0.234 | 0.228 | 0.21 | 0.236 | 1.03 | 1.11 | 0.731 | 0.65 | 0.108
NCI-H2085 | 0.789 | 0.935 | 0.83 | 0.856 | 0.952 | 1.05 | 0.941 | 0.805 | 0.797 | 1.05 | 0.56 | 0.544 | 0.597 | 0.498 | 0.508 | 1 | 0.969 | 0.973 | 1.33 | 0.803
NCI-H2087 | 0.867 | 0.901 | 0.746 | 0.735 | 0.993 | 1.06 | 1.05 | 0.928 | 0.678 | 0.936 | 0.251 | 0.286 | 0.36 | 0.305 | 0.224 | 0.882 | 0.936 | 0.745 | 0.764 | 0.354
NCI-H2126 | 1 | 1.1 | 0.989 | 0.887 | 0.986 | 0.673 | 0.698 | 0.754 | 0.553 | 0.709 | 0.564 | 0.624 | 0.547 | 0.582 | 0.587 | 1.19 | 1.11 | 0.957 | 1.17 | 0.861
NCI-H2347 | 0.717 | 0.771 | 0.7 | 0.689 | 0.606 | 0.918 | 0.953 | 0.922 | 0.891 | 0.938 | 0.689 | 0.581 | 0.628 | 0.57 | 0.633 | 0.871 | 1.49 | 1.17 | 0.961 | 0.797
NCI-H2405 | 0.904 | 0.851 | 0.851 | 0.798 | 0.839 | 0.992 | 1.09 | 1.03 | 0.803 | 1.01 | 0.798 | 0.722 | 0.822 | 0.719 | 0.704 | 1 | 1.01 | 0.883 | 0.977 | 0.734
NCI-H3122 | 0.247 | 0.273 | 0.279 | 0.215 | 0.272 | 1.01 | 1.06 | 1.09 | 0.919 | 0.97 | 0.509 | 0.375 | 0.472 | 0.381 | 0.463 | 1.06 | 1.05 | 1.06 | 1.05 | 0.502
PC-3 [JPC-3] | 0.978 | 0.997 | 0.944 | 0.859 | 1 | 1.1 | 0.956 | 0.949 | 0.891 | 0.949 | – | 0.792 | 0.849 | 0.694 | 0.815 | 0.82 | 0.788 | 0.738 | 0.914 | 0.746
PC-14 | 0.995 | 0.838 | 0.819 | 0.725 | 0.956 | 0.96 | 0.919 | 0.922 | 0.829 | 0.981 | 0.224 | 0.242 | 0.233 | 0.2 | 0.216 | 0.993 | 0.778 | 0.83 | 0.623 | 0.434
RERF-LC-KJ | 0.794 | 0.843 | 0.832 | 0.763 | 0.754 | 0.903 | 0.922 | 0.801 | 0.812 | 0.794 | 0.816 | 0.767 | 0.728 | 0.619 | 0.463 | 1.43 | 1.17 | 0.908 | 0.836 | 0.728
SK-LU-1 | 1.12 | 1.03 | 0.925 | 0.763 | 0.923 | 1.04 | 1.08 | 1.16 | 0.984 | 1.24 | 0.6 | 0.627 | 0.749 | 0.478 | 0.665 | 0.975 | 1.26 | 0.763 | 0.673 | 0.362
SW 1573 | 0.778 | 0.693 | 0.889 | 0.749 | 0.895 | 0.765 | 0.839 | 0.959 | 0.744 | 0.829 | 0.609 | 0.502 | 0.552 | 0.408 | 0.456 | 1.2 | 1.05 | 0.842 | 0.916 | 0.727
